This note sets out measurements from patent US8927130B2, “Electrolyte for redox flow battery and redox flow battery including the same” (Samsung Electronics Co., Ltd., priority 2011, dated 2015).

A short description of this data set: Cyclic voltammetry of electrolytes for 100 cycles. The note with it: in the electrolytes of Examples 1 and 2 (GBL, 0.5 M TEABF4), cyclic voltammetry 100 cycles. The data set is classed as physicochemical. As for the experimental part: A current value as a function of potential was measured for 100 cycles by using each of the electrolytes of Examples 1 and 2, at a potential scan rate of 10 mV/s and in a potential scan range of about −2 V to about 1.25 V. A cell for measuring the cyclic voltammogram included an Ag/Ag^+ electrode in which 0.3 M of AgNO3 was dissolved in acetonitrile as a solvent as a reference electrode, carbon felt as a working electrode, and platinum as a counter electrode. The measurement results are illustrated in FIGS. 6A and 6B.

As to `O=S(=O)([N-]S(=O)(=O)C(F)(F)F)C(F)(F)F.O=S(=O)([N-]S(=O)(=O)C(F)(F)F)C(F)(F)F.[Ni+2].c1ccc(-c2ccccn2)nc1.c1ccc(-c2ccccn2)nc1.c1ccc(-c2ccccn2)nc1` [Preparation Example 1, Ni(bpy)3(TFSI)2], the “stability of the redox couple of the metal salt in the electrolyte” value is recorded as “stable”.
